Assay type in all cases: biochemical
The target in assay [1] is T1, CDK4 (Homo sapiens, UniProt P11802). The assay is described as follows: mobility shift kinase assay, % inhibition at […].
The target of assay [2] is T1, CDK4. Description: mobility shift kinase assay, % inhibition at […]. The source holds these as a separate data set.
Assay [3] addresses T1, CDK4. Description: mobility shift kinase assay ([…] CDK4, […] ATP, FAM-P8).
The next assay concerns the target Pim1 (Homo sapiens, UniProt P11309). Description: mobility shift kinase assay ([…] Pim1, […] ATP, FAM-P20).

T1 sequence (P11802 2-303): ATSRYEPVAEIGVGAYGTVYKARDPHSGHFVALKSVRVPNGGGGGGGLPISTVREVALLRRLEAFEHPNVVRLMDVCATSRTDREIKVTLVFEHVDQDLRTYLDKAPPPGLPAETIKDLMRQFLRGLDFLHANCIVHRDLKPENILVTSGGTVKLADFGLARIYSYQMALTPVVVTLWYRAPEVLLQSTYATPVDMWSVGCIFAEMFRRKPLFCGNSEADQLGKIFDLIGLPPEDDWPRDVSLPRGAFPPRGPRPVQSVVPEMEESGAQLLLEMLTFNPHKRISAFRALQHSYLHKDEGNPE
T1 sequence (P30281 whole entry partner): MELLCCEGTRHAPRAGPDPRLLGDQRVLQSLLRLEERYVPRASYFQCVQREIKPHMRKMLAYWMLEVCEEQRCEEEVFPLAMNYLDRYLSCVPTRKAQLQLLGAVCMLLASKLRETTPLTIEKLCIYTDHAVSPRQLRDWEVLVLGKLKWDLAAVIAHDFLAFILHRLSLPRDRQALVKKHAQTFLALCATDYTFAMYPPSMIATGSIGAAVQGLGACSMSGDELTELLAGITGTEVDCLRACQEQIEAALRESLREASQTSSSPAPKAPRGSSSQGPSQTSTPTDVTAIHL
Sequence of Pim1 (P11309 whole entry): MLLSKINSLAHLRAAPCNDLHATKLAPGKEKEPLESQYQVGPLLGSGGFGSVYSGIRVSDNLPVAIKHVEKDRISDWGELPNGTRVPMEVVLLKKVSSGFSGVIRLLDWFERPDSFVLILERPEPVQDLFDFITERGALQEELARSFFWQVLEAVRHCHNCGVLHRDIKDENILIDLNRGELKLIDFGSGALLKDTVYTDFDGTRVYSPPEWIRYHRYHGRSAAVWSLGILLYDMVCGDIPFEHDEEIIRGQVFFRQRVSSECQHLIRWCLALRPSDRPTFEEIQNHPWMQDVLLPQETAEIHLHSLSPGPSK

As to `O=C1N=c2ccccc2=C1c1s/c(=N\N=C2\C(=O)Nc3ccccc32)n(-c2ccc(O)cc2)c1O` [AF-399/37285031], the “% inhibition at 10 μM” value on CDK4 [1] was 57.8 ± 5.0.
Turning to `CC(C)n1cc(C(N)=O)c2cnc(Nc3ccc(N4CCNCC4)cc3)nc21` [MJ-115], the “Inhibition for CDK4 at 100 μM (%)” value on CDK4 [2] is recorded as 90.74 ± 1.28.
In general, IC50 refers to the point on the concentration scale where inhibition reaches its midpoint. For the compound `Oc1ccc(-c2ccc3nnc(-c4ccc5cccc(OC6CCNCC6)c5n4)n3c2)cc1` [MJ-1055], the concentration for half-maximal inhibition (IC50) on CDK4 [3] was found to be 25.3 µM; on Pim1, 0.0096 µM.

Source of the values: paper PMC7278228, “Chemical space exploration based on recurrent neural networks: applications in discovering kinase inhibitors” (Journal of Cheminformatics, 2020).
